Data as given in patent US20090275583A1, “ANTIVIRAL COMPOUNDS AND USE THEREOF” (Myriad Genetics, Incorporated, priority 2006, published 2009).
Like-named read-outs stand apart in the source and are kept apart here.

Columns and labels:
[1] = system: HIV-1NL4-3; test: P4-MAGI assay; type: cell-based
How it was run: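 HeLa-derived CD4+ P4 cells carrying an LTR-driven lacZ were infected with HIV-1NL4-3 at MOI 1 with DEAE-Dextran, then compound added in increasing concentrations right after virus; infection reported as Tat-induced β-galactosidase. TC50 measured by WST-1 in mock-infected cells.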

[2] = system: HIV-1 laboratory strain, NL4-3; test: MT-4 cytoprotection assay; type: cell-based
How it was run: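 MT-4 cells mock- or batch-infected with NL4-3 (MOI 0.0005) for 2 h, washed, then cultured 4 days with increasing compound concentrations. Viability read by WST-1 tetrazolium reduction: cytoprotection in infected cells, toxicity in mock-infected cells.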

[3] = Human immunodeficiency virus 1, 24 h, P4 cells, 24 hour incubation, β-galactosidase expression, read-out: P4-MAGI IC50
[4] = Human immunodeficiency virus 1, NL43, MT4, 96 h, MT-4 cells, four days incubation, WST-1 readout, read-out: MT4 EC50
[5] = Human immunodeficiency virus 1, text statement, less than about 100 nm, read-out: P4-MAGI assay IC50
[6] = Human immunodeficiency virus 1, NL43, less than about 100 nm, read-out: MT-4 assay EC50 (concentration of compound that reduces the virus induced cytopathic effect by 50%)

`C=C(C)[C@@H]1CC[C@]2(C(=O)NCCc3cccc(C(=O)NCc4ccc(OCCCN5CC(C)NC(C)C5)c(C(=O)O)c4)c3)CC[C@]3(C)C(CCC4[C@@]5(C)CC[C@H](O)C(C)(C)C5CC[C@]43C)C12` (stereo partly drawn) [Example 241] gave an IC50 [1, 3] of 5 nM and an EC50 [2, 4] of 22.5 nM.

`C=C(C)[C@@H]1CC[C@]2(C(=O)NCCc3cccc(C(=O)NCc4ccc(C(=O)NCc5cccnc5C(=O)OC)cc4)c3)CC[C@]3(C)C(CCC4[C@@]5(C)CC[C@H](O)C(C)(C)C5CC[C@]43C)C12` (stereo partly drawn) [Example 189] showed an IC50 [1, 3] of 4 nM and an EC50 [2, 4] of 25 nM.

Molecule `C/C(=C/C#N)[C@@H]1CC[C@]2(C(=O)NCCc3cccc(C(=O)NCc4ccc(C(=O)O)cn4)c3)CC[C@]3(C)C(CCC4[C@@]5(C)CC[C@H](O)C(C)(C)C5CC[C@]43C)C12` (stereo partly drawn) [Example 269] has an IC50 [1, 3] of 11.4 nM and an EC50 [2, 4] of 39 nM.

`C=C(C)[C@@H]1CC[C@]2(C(=O)NCc3ccc(F)c(C(=O)NCCc4ccc(C(=O)O)cc4)c3)CC[C@]3(C)C(CCC4[C@@]5(C)CC[C@H](O)C(C)(C)C5CC[C@]43C)C12` (stereo partly drawn) [Example 103] was tested, and the IC50 [1, 3] was 69.3 nM, the IC50 [1, 5] was less than 100 nM and the EC50 [2, 4] was 7.3 nM. It also gave an EC50 [2, 6] of less than 100 nM.

For `C=C(C)[C@@H]1CC[C@]2(C(=O)NCc3cccc(C(=O)NCC(F)(F)c4ccc(C(=O)O)cc4)c3)CC[C@]3(C)C(CCC4[C@@]5(C)CC[C@H](O)C(C)(C)C5CC[C@]43C)C12` (stereo partly drawn) [Example 37], the IC50 [1, 3] was 56.7 nM, the IC50 [1, 5] was less than 100 nM and the EC50 [2, 4] was 7.3 nM. For the same molecule, the EC50 [2, 6] was less than 100 nM.

In the case of `C=C(CSCCC(=O)O)[C@@H]1CC[C@]2(C(=O)NCCc3cccc(C(=O)NCc4ccc(C(=O)O)cc4)c3)CC[C@]3(C)C(CCC4[C@@]5(C)CC[C@H](O)C(C)(C)C5CC[C@]43C)C12` (stereo partly drawn) [Example 268], the IC50 [1, 3] is reported as 104 nM and the EC50 [2, 4] is reported as 411 nM.

`C=C(C)[C@@H]1CC[C@]2(C(=O)NCc3ccc(F)c(C(=O)NCc4ccc(C(=O)OC)cc4)c3)CC[C@]3(C)C(CCC4[C@@]5(C)CC[C@H](O)C(C)(C)C5CC[C@]43C)C12` (stereo partly drawn) [Example 108] gave an IC50 [1, 3] of 109 nM, an EC50 [2, 4] of 100 nM and an EC50 [2, 6] of less than 100 nM.

For `C=C(C)[C@@H]1CC[C@]2(C(=O)NCCc3cccc(C(=O)NCc4ccc(C(=O)NCCN5CCNCC5)cc4)c3)CC[C@]3(C)C(CCC4[C@@]5(C)CC[C@H](O)C(C)(C)C5CC[C@]43C)C12` (stereo partly drawn) [Example 192], the IC50 [1, 3] was 7 nM and the EC50 [2, 4] was 7 nM.
